Data reported in patent publication US6632798B2, “Methods for inhibiting angiogenesis” (Antigen Biologicals Corporation, priority 2001, dated 2003).
Marks after values point to notes of the source that are not given here.

Experiments:
[1] = system: induced blood vasculature of the adult mouse ear; assay: adult mouse ear model, blood vessel growth induced by sodium hydroxide burn; type: in vivo; settings: 0.025 grams in 0.25 ml PBS intraperitoneally once a day, 3 days before and 3 days after NaOH burn, FIG. 7
Description: This example illustrates the anti-angiogenic properties of Oleuropein in the adult mouse ear model. The endpoint of the adult mouse ear model assay was a direct visualization of the number of branch points and ends of blood vessels. Such visualization would illustrate the complexity of the blood vasculature in the adult mouse ear. The decrease in the complexity of the induced blood vasculature of the adult mouse ear as a result of the application of Oleuropein would indicate its anti-angiogenic properties.
In the previous model (the CAM in the developing chick embryo), although an excellent in vivo system for studying angiogenesis, because there is ongoing new blood vessel growth in the growing embryo, we tested another model in assessing whether Oleuropein can inhibit induced blood vessel growth in an adult mammal. The model we chose to use was the adult mouse ear. The mouse ear is vascularized and is thin enough to be directly visualized by a light microscope. If a stimulus is applied to the adult mouse ear existing blood vessels are capable of sprouting new ones (angiogenesis). Using this model anti-angiogenic compounds can be tested for their effects. We applied a sodium hydroxide burn, which stimulated the existing blood vessels in the adult mouse ear to sprout new blood vessels. […]

[2] = system: blood vessels in the chick chorioallantoic membrane (CAM); assay: chick chorioallantoic membrane (CAM) assay, injection into the yolk sac; type: in vivo, chick embryo; settings: for Number Nodes + Ends (mean ± S.E.): control 271 ± 25, P < 0.0001 vs control
Description: Compounds suitable for use in the methods of the present invention can readily be identified using in vitro and in vivo screening assays. Such assays may screen for the ability of a particular compound to inhibit angiogenesis or the vascularization of endothelial cells in vitro and in vivo. For instance, the chick embryo chorioallantoic membrane (CAM) assay, which is described in more detail below, can be used to screen a given compound for its ability to inhibit vascularization. In the chorioallantoic membrane assay as performed in this invention, fertilized chick embryos are injected with a compound on day 3 or 4. The embryos are then allowed to develop for […] post injection upon which the shell is cracked and the chorioallantoic membrane is photographed. Based on the number of blood vessel nodes and ends present in the CAM the complexity of vascularization can be assessed. This assay can be used to assess the anti-angeogenic properties of the compounds in this invention. It will be readily apparent to those skilled in the art that the compounds in this invention can be administered alone, in the form of a pharmaceutically acceptable salt and/or in the form of a pharmaceutical composition. This example illustrates the anti-angiogenic properties of Oleuropein in the chick chorioallantoic membrane assay (CAM). The endpoint of the CAM assay was a quantitative determination of the number of branch points and ends of blood vessels in the chorioallantoic membrane. Such a quantitation would illustrate the complexity of the blood vasculature in the developing chorioallantoic membrane. The decrease in the complexity of the blood vasculature of the chorioallantoic membrane as a result of the application of Oleuropein indicates its anti-angiogenic properties. The CAM in the developing chick embryo is an excellent in vivo system for studying angiogenesis, because there is ongoing new blood vessel growth. The CAM assay involves the monotering of the blood vasculature of the developing chorioallantoic membrane of live chick embryos. Various CAM assay approaches have been developed. These include the culturing of live chick embryos in Petri dishes under special sterile conditions. Another approach has been to cut a window in the shell of fertilized eggs and directly apply the compound to be studied in the window using a filter paper. We used a modified approach to the CAM assay, which includes a less invasive method for introducing the compound Oleuropein. Fertilized chicken eggs where candled on the third day of development. The blood vasculature and the yolk were identified. A small 1 mm hole was made in the shell. A small gauge needle carrying 0.4 ml of Oleuropein diluted in saline/water was injected directly into the yolk sac. The hole was taped and the eggs were returned to the incubator for further development. After 3 days the eggs were removed and cracked in a white dish and the chorioallantoic membrane was photographed. Control eggs were injected with saline/water. Fresh fertile eggs were incubated for three days in a standard egg incubator. Temperature and humidity were kept constant at 100° F. and 65% respectively. On Day 3, eggs were […] using a police flash light. Embryo and yolk were identified. The surface of the shell was cleaned with an alcohol swab. The egg shell was pierced with a lancet making a 1 millimeter hole. A needle was used to withdraw 0.5 ml of yolk. A 0.5 ml injection was administered directly into the yolk sack. […] Experimental eggs were injected with a 0.1% and 1.0% concentration of Oleuropein. Control eggs were injected with an equivalent amount of water. After injection the hole was covered with a small piece of scotch tape and the eggs were returned to the incubator for further development. On day 3 post injection the eggs were removed from the incubator and […]. They were cracked gently using a butter knife over a white dish. Embryo and CAM were carefully layed out for observation and photography. […]

[3] = Oleuropein treated eggs, FIG. 5

C/C=C1/[C@H](O[C@@H]2O[C@H](CO)[C@@H](O)[C@H](O)[C@H]2O)OC=C(C(=O)OC)[C@H]1CC(=O)OCCc1ccc(O)c(O)c1 [Oleuropein]
inhibition of induced blood vessel growth in the ear (photographs) [1]: potently inhibited existing blood vessels from sprouting
effect on CAM vasculature (photographs) ([2]; 0.93 μmol/egg, FIG. 2 vs control FIG. 3): potently inhibited CAM vasculature
% Inhibition of blood vessel growth compared to control ([2]; 0.93 μmole/egg): 73%
Number Nodes + Ends (mean ± S.E.) ([2]; 0.93 μmole/egg into yolk sac of three-day-old chick embryos): 72 ± 11^b
effect on CAM vasculature (photographs) ([2]; 9.3 μmol/egg, FIG. 1 vs control FIG. 3): number of blood vessels is greatly diminished and branching is less complex than in controls
% Inhibition of blood vessel growth compared to control ([2]; 9.3 μmole/egg): 84%
Number Nodes + Ends (mean ± S.E.) ([2]; 9.3 μmole/egg into yolk sac of three-day-old chick embryos): 44 ± 5.3^a
CAM diameter, smaller than control CAM [2, 3]: about 50%
embryo size, smaller than untreated control embryos [2, 3]: about 60%
embryo viability ([2]; higher dose of Oleuropein): did not effect embryo viability
